Source: patent US20150374784A1, “COMPOSITIONS AND METHODS FOR REDUCING GERM CELL DEATH” (Los Angeles Biomedical Research Institute at Harbor-UCLA …, priority 2014, published 2015)
“And” between values parts separate entries of the source, which are not always exact repeats. Equal entries are not always repeated.

Assays:
male germ cells [1] = format: in vivo, mouse
Description: (§1) For the HN analog experiments, male mice were divided into seven groups (n=4-5 per group) and received one of the following treatments and sacrificed after 24 hours: 1) vehicle (control); 2) a single intra-peritoneal (IP) injection of HN peptide [HN, 40 mg/Kg body weight (BW)]; 3) a single IP injection of CP (CP, 200 mg/Kg BW); 4) IP injection of CP and HN (CP+HN); 5) a single IP injection of each HN analog (HNG 5 mg/Kg BW, HNG-F6A 5 mg/Kg BW, HN-S7A 40 mg/Kg BW, HN-C8P 40 mg/Kg BW, or HN-L12A 40 mg/Kg BW); 6) IP injection of CP and each HN analog (CP+HNG, HNG-F6A, HN-S7A, HN-C8P, or HN-L12A); and 7) IP injection of CP+HN+HN analog (HN-S7A, HN-C8P, or HN-L12A; to assess whether the analogs has enhancing or inhibitory effect on HN).
(§2) To facilitate testicular fixation by using a whole-body perfusion technique, all animals were injected with heparin (130 IU/100 g BW, IP) 15 min before a lethal injection of sodium pentobarbital (200 mg/kg BW, IP) (Lue Y H, et al., 1999). One testis was removed and weighed after perfusion with saline. Portions of testicular parenchyma were snap frozen in liquid nitrogen, and stored at −80 C for Western blotting. The other testis was fixed by vascular perfusion with Bouin's solution, and processed with routine paraffin embedding for in situ detection of apoptosis.
Detection of apoptotic cells was performed in Bouin's′-fixed, paraffin-embedded testicular sections by the terminal deoxynucleotidyl transferase (TdT)-mediated deoxy-UTP nick end labeling (TUNEL) technique (Sinha Hikim A P, et al., 1997) using an ApopTag-peroxidase kit (Chemicon International, Inc., Temecula, Calif.). Enumeration of the Sertoli cell nuclei with distinct nucleoli and apoptotic germ cell population was quantified at stages I-IV (early stages), stages VII-VIII (middle stages) and stages XI-XII (late stages) of the seminiferous epithelial cycle using an Olympus BH-2 microscope (New Hyde Park, N.Y.). Stages were identified according to the criteria proposed by Russell et al for paraffin sections (Russell L, 1977). The rate of germ cell apoptosis (apoptotic index, AI) was expressed as the number of apoptotic germ cells per Sertoli cells (Sinha Hikim A P, et al., 1997).

Leydig cells = assay: Leydig cell depletion and testosterone levels in rats; format: in vivo, rat; settings: for intratesticular testosterone levels / serum testosterone levels: rats, EDS 80 mg/kg, CP 70 mg/kg BW, HN 40 mg/kg BW, with or without EDS pre-treatment
male germ cells [2] = test system: male germ cells
STAT3 = STAT3 phosphorylation in testis by western blot; format: in vivo, mouse; settings: testis homogenates; for STAT3 phosphorylation (phosphorylated STAT3/STAT3) compared with control: treatment alone
Description: as §1, §2
Western blotting was performed as described previously (Jia Y, et al., 2009). In brief, proteins were denatured and separated by sodium dodecyl sulfate-polyacrylamide gel electrophoresis (SDS-PAGE) system (Invitrogen, Carlsbad, Calif.). After transferring, the Immuno-blot PVDF Membrane (Bio-Rad, Hercules, Calif.) was blocked for 1 h and then probed using anti-STAT3 or anti-pSer727 STAT3 (Cell signaling Technology, Inc., Beverly, Mass.) overnight at 4 C with constant shaking. After washing, membrane was then incubated with an anti-mouse (for STAT3 antibody, Santa Cruz Biotechnology, Santa Cruz, Calif.) or anti-rabbit (for pSer727 STAT3 antibody, Amersham Biosciences, Piscataway, N.J.) IgG-HRP secondary antibody. All antibodies were diluted in blocking buffer. For immunodetection, membrane was incubated with enhanced chemiluminescence solutions per the manufacturer's specifications (Amersham Biosciences, Piscataway, N.J.), and exposed to Hyperfilm ECL (Denville Scientific Inc., Metuchen, N.J.).

male germ cells [3] = format: in vivo, mouse; settings: for germ cell apoptosis in testicular cross sections (TUNEL) compared to control: 24 hours after IP injection
Description: Young adult mice (12-13 weeks) were randomly divided into 4 groups with 4 or 5 mice per group and received an IP injection: control (Con) (saline), HN (40 mg/Kg BW), CP (200 mg/Kg BW), and the combination of CP+HN. These experiments were repeated four times. In the CP+HN group, mice received an injection of HN followed by an injection of CP about 15 minutes later. Twenty-four hours after injections animals were sacrificed using 5% pentobarbital (200 mg/kg BW) IP injection. Blood was collected and one testis was removed, weighed and frozen in liquid nitrogen. The mouse was next perfused with saline and then subsequently perfuse-fixed with Bouin's solution as previously described and apoptosis was assessed by TUNEL assay (Lue, et al., 2009).
For detection of apoptosis in testicular sections, the paraffin embedded testis tissue was cut into 5 micron sections and stained with the TdT-mediated dUTP nick-end labeling assay (TUNEL Apoptosis Detection Kit, Millipore, Billerica, Mass.) to detect apoptosis of germ cells in the testis (Lue, et al., 2009). Testicular sections assayed by TUNEL were examined under a light microscope and the apoptotic germ cells were blindly and manually counted. The seminiferous tubules in the testis section under the microscope were grouped as stages IX-IV (early-late stages of spermatogenesis) and V-VIII (middle stages of spermatogenesis). Germ cell apoptosis was quantified as the number of seminiferous tubules containing apoptotic spermatogonia, spermatoctyes, round spermatids and spermatozoa per 100 seminiferous tubules (Drumond, et al., 2011).
Statistical analyses of the majority of the data was performed using the Sigma Plot 12 program (Jandel, San Rafael, Calif.). The data were analyzed by using t-tests and one-way ANOVA followed by Student-Newman-Keuls Method. P-values of less than 0.05 (P<0.05) were considered significant. In in vivo experiments when the testicular sections were assessed for apoptosis, a mixed model used the percentage of tubules with apoptosis as the dependent variable. Two different stages (Early or Late Vs Middle) and four treatment groups (Control, HN CP, CP+HN) as well as the interaction term were included in the model as independent variables. Persons who did the experiment were considered as a random effect to accommodate a potential heterogeneous variance in the model. Least Square Means and their differences were computed and tested using the Tukey's adjustment for multiple pair-wise comparisons. A residual analysis was done to check for the model assumptions. All the data analysis was carried out using SAS 9.3 (Cary, N.C. USA).

[4] = EDS 80 mg/kg IP 3 days before, CP 70 mg/kg BW
[5] = rats not pre-treated with EDS, CP 70 mg/kg BW IP, 12 hours

MAPRGFSCLLLLTSEIDLPVKRRA [HN, 24-amino acid mitochondrial derived peptide]
spontaneous germ cell apoptosis, peptide alone (male germ cells [1]; single IP, 24 hours, no CP): did not change the spontaneous germ cell apoptosis | inhibition of (protection against) CP-induced germ cell apoptosis, early+late stages (male germ cells [1]; stages I-IV and XI-XII, HN, HN-C8P 40 mg/kg BW, HNG, HNG-F6A 5 mg/kg BW): ~57% and ~60% | effect on CP-induced germ cell apoptosis, middle stages (male germ cells [1]; stages VII-VIII, 40 mg/kg BW): not in middle stages | EDS-induced Leydig cell loss (Leydig cells; HN administered 3 days after EDS pre-treatment): did not reverse the EDS-induced Leydig cell loss | intratesticular testosterone levels (Leydig cells): had no significant effects | serum testosterone levels (Leydig cells): had no significant effects | germ cell apoptosis at early and late stages in EDS pre-treated rats, addition of HN (male germ cells [2]; HN 40 mg/kg BW): did not significantly reduced germ cell apoptosis | CP effects at early and late stages in EDS pre-treated animals, addition of HN (male germ cells [2]; HN 40 mg/kg BW + CP + EDS): did not change the CP effects in EDS pre-treated animals | EDS-induced apoptosis of germ cells, middle stages (male germ cells [2]; HN 40 mg/kg BW IP 3 days after EDS): significantly reduced the EDS-induced apoptosis of germ cells | increase in apoptosis in CP+EDS group, middle stages (male germ cells [2]; concomitant HN 40 mg/kg BW): reduced by concomitant HN treatment | apoptosis in CP treated testis, middle (VII-VIII) stages (male germ cells [2]; rats not pre-treated with EDS, HN 40 mg/kg BW + CP): had no effect on CP treated testis | CP-induced apoptosis at early and late stages (male germ cells [2]; rats not pre-treated with EDS, HN 40 mg/kg BW IP + CP 70 mg/kg BW): significantly reduced CP-induced apoptosis | STAT3 phosphorylation (phosphorylated STAT3/STAT3) compared with control (STAT3): did not change STAT3 phosphorylation | CP suppressed STAT3 (Ser727) phosphorylation (STAT3; with CP 200 mg/Kg): restored CP-induced Ser 727-phosphorylation of STAT3 | germ cell apoptosis in testicular cross sections (TUNEL) compared to control (male germ cells [3]; HN 40 mg/Kg, CP 200 mg/Kg): had no significant effect on germ cell apoptosis | CP-induced germ cell apoptosis (male germ cells [3]; HN 40 mg/Kg IP about 15 minutes before CP 200 mg/Kg IP, 24 hours): attenuated the CP-induced germ cell apoptosis

O=P1(N(CCCl)CCCl)NCCCO1 (stereo not shown) [CP, cyclophosphamide monohydrate]
Apoptotic Index (AI), apoptotic germ cells per Sertoli cell, middle stages (male germ cells [1]; stages VII-VIII, 24 hours after single IP, CP 200 mg/Kg, HN, HN-S7A 40 mg/Kg, HNG, HNG-F6A 5 mg/Kg, monohydrate): 0.25±0.03 and 0.33±0.03 | intratesticular testosterone levels (Leydig cells): had no significant effects | serum testosterone levels (Leydig cells): had no significant effects | CP induced germ cell apoptosis with versus without EDS pre-treatment, early and late stages (male germ cells [2]; CP 70 mg/kg BW): significantly lower in EDS pre-treated rats | germ cell apoptosis at early (I-VI) and late (IX-XIV) stages, EDS pre-treated rats, compared to control (male germ cells [2]; [4]): did not significantly increased germ cell apoptosis | germ cell apoptosis in middle (VII-VIII) stages, EDS pre-treated rats (male germ cells [2]; [4]): did not additively increased germ cell apoptosis caused by EDS treatment | germ cell apoptosis at early (I-VI) and late (IX-XIV) stages compared to control (male germ cells [2]; [5]): significantly increased germ cell apoptosis | germ cell apoptosis in the middle (VII-VIII) stages (male germ cells [2]; [5]): did not increase apoptosis in the middle (VII-VIII) stages | STAT3 phosphorylation (phosphorylated STAT3/STAT3) compared with control (STAT3): suppressed Ser727-phosphorylated STAT3 in testes | germ cell apoptosis in testicular cross sections (TUNEL) compared to control (male germ cells [3]; HN 40 mg/Kg, CP 200 mg/Kg): significantly increased germ cell apoptosis | germ cell apoptosis, percentage of tubules with apoptotic cells, early-late stages (male germ cells [3]; early-late stages of spermatogenesis, 24 hours, CP 200 mg/Kg, HN 40 mg/Kg): significantly increased germ cell apoptosis | germ cell apoptosis, percentage of tubules with apoptotic cells, middle stages (male germ cells [3]; middle stages (V-VIII), 24 hours, CP 200 mg/Kg, HN 40 mg/Kg): significant increase in apoptosis
